Results on 17 compounds are retold here after ChEMBL document CHEMBL5634173, “Identification of a novel histone H2A mono-ubiquitination-inhibiting cell-active small molecule” (Bioorg Med Chem Lett, 2024).

Molecules are shown by their SMILES. Activity calls are given as the source filed them. No cut-off for these calls is given here.

The test system of experiment [1] is U2OS. Put plainly: Antiproliferative activity against human U2OS cells assessed as reduction in cell viability at 30 uM incubated for 72 hrs. Type of experiment: functional, cell-based.
Experiment [2] concerns U2OS. Put plainly: Antiproliferative activity against human U2OS cells assessed as reduction in cell viability at 50 uM incubated for 72 hrs. Format: functional, cell-based.
For experiment [3], the system named is U2OS. Put plainly: Antiproliferative activity against human U2OS cells assessed as reduction in cell viability incubated for 72 hrs. Type of experiment: functional, cell-based.
The subject of experiment [4] is U2OS. Description: Inhibition of histone H2A ubiquitination at K119 residue in human U2OS cells assessed as decrease in H2AK119ub1 level incubated for 1 hr by Western blotting analysis. To be noted: dose 24-96 µM. Format: cell-based. (In general: In western blotting, separated proteins are transferred to a membrane and probed.)
Experiment [5] relates to U2OS. Description: Antiproliferative activity against human U2OS cells assessed as reduction in cell viability at 30 uM incubated for 72 hrs relative to control. Type of experiment: functional.

For the compound `Cc1cccc(C)c1C=C1C(=O)c2ccccc2C1=O`, the result in experiment [1] was inactive.
For orientation: IC50 means the point on the concentration scale where inhibition reaches its midpoint. In the case of `O=C1C(=Cc2cccnc2)C(=O)c2ccccc21`, the result in experiment [2] was Active. In experiment [3], the Activity result was “Dose-Dependent Effect” and the IC50 turned out to be 45.2 µM.
`COc1ccccc1C=C1C(=O)c2ccccc2C1=O`: the result in experiment [1] was inactive.
Consider `COc1cccc(C=C2C(=O)c3ccccc3C2=O)c1`, for which, in experiment [1], the outcome was inactive.
On to `O=C1C(=Cc2ccc([N+](=O)[O-])cc2)C(=O)c2ccccc21`, for which the IC50 in experiment [3] is 33.5 µM. In experiment [1], the outcome was Active.
`O=C1C(=Cc2c([N+](=O)[O-])cccc2[N+](=O)[O-])C(=O)c2ccccc21`: the IC50 in experiment [3] is 5.86 µM. For the same compound, the inhibition entry in experiment [4] is “Dose-Dependent Effect”. Moreover, the Activity in experiment [5] is listed as 100%.
On to `Cc1ccc(C=C2C(=O)c3ccccc3C2=O)cc1`, for which the outcome in experiment [1] was inactive.
As for `O=C1C(=Cc2ccccc2)C(=O)c2ccccc21`, the outcome in experiment [1] was inactive.
Regarding `O=C1C(=Cc2ccc([N+](=O)[O-])cc2[N+](=O)[O-])C(=O)c2ccccc21`, the IC50 in experiment [3] amounted to 24 µM.
With `N#Cc1cccc(C=C2C(=O)c3ccccc3C2=O)c1`, the IC50 in experiment [3] was 32.1 µM.
On to `O=C1C(=Cc2ccccc2[N+](=O)[O-])C(=O)c2ccccc21`, for which the IC50 in experiment [3] was determined as 39.6 µM. For the same compound, the outcome in experiment [1] was Active.
`Cc1cccc(C=C2C(=O)c3ccccc3C2=O)c1`: in experiment [1], the result was inactive.
Same read-out and setting: the result for `COc1ccc(C=C2C(=O)c3ccccc3C2=O)cc1` reads “inactive”; that for `Cc1ccccc1C=C1C(=O)c2ccccc2C1=O`, “inactive”.
Still for that read-out and setting: the result for `O=C1C(=Cc2cccc(F)c2)C(=O)c2ccccc21` reads “inactive”.
Turning to `CCc1c(-c2cccc3[nH]ccc23)[nH]c(C(=O)O)c1-c1ccccc1Cl`, the outcome in experiment [2] was inactive.
Turning to `O=C1C(=Cc2cccc([N+](=O)[O-])c2)C(=O)c2ccccc21`, in experiment [3], the half-maximal inhibitory concentration (IC50) came out at 24 µM. In addition, in experiment [1], the result was Active.
